According to paper doi:10.1101/2024.10.27.620470v1 (biorxiv, 2024):

biological target: G3BP1NTF-2-GFP (Homo sapiens, UniProt Q13283); test: fluorescence plate PPI inhibition assay; assay type: biochemical
Sequence (Q13283 1-139): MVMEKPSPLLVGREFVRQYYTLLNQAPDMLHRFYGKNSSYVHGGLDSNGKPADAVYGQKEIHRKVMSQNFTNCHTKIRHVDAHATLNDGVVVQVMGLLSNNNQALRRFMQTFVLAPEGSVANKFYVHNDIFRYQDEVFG

`CN1C[C@H](C(=O)N[C@]2(C)O[C@@]3(O)[C@@H]4CCCN4C(=O)[C@H](Cc4ccccc4)N3C2=O)C[C@@H]2c3cccc4[nH]cc(c34)C[C@H]21` [Dihydroergotamine] was tested. Which IC50 did it give?
Its IC50 is 13.2 ± 5.8 µM.

With `O=C1NCN(c2ccccc2)C12CCN(CCCC(c1ccc(F)cc1)c1ccc(F)cc1)CC2` [Fluspirilene] as the compound, how does the IC50 read?
Its IC50 is 10.5 ± 1.8 µM.

Which IC50 does the source give for `CNC(=O)c1c(F)cccc1Nc1nc(Nc2cc3c(cc2OC)CCN3C(=O)CN(C)C)nc2[nH]ccc12` [GSK1838705A] here?
Its IC50 is 14.5 ± 4.9 µM.

Which IC50 does the source give for `COc1ccc(Br)cc1S(=O)(=O)NC(=O)/C=C/c1ccccc1Cc1ccc2ccccc2c1` [L-798106] here?
Its IC50 is 11.6 ± 4.5 µM.

Which IC50 does the source give for `CC[C@H](NC(=O)c1c(C)c(-c2ccccc2)nc2ccccc12)c1ccccc1` [SB_222200] here?
The IC50 was 13 ± 0.6 µM.
